Assay results taken from US20220409620A1, “REDUCING IMMUNOGENICITY TO PEGLOTICASE” (Horizon Pharma Rheumatology LLC, priority 2016, published 2022).

System: adult patients with uncontrolled gout
Experiment: Serum uric acid (sUA) levels and sUA responder rate, open-label study of pegloticase with MTX (MIRROR OL)
Format: in vivo, human
Conditions: Month 6 sUA Responders
Procedure: The primary objective is to estimate the response rate during Month 6 (Weeks 20, 22, and 24), as measured by the sustained normalization of serum uric acid (SUA) to <6 mg/dL for at least 80% of the time during Month 6 in subjects receiving KXX with MTX.
The primary efficacy outcome endpoint is the sustained normalization of SUA to <6 mg/dL for at least 80% of the time during month 6 (weeks 20, 22, and 24) in subjects receiving KXX with MTX. […] Participants who achieve this endpoint were classified as “responders.” Serum uric acid (SUA) responders may also be defined as participants achieving and maintaining SUA <6 mg/dL for at least 80% of the time during Month 6 (Weeks 20, 22, and 24).
Blood samples may be collected prior to each pegloticase infusion for measurement of SUA levels using the Beckman Coulter AU System Uric Acid procedure. Participants were declared “non-responders” if there were SUA measures >6 mg/dL at 2 consecutive study visits beginning with the week 2 visit. […] This assumption and subsequent discontinuation of pegloticase was consistent with the protocol of large phase III randomized controlled trials and the product label. A formal stopping rule was 2 occasions of SUA levels of greater than 6 mg/dL.
Clinical Chemistry—Blood samples were collected prior to each pegloticase infusion for measurement of SUA levels (primary efficacy parameter) using the Beckman Coulter AU System Uric Acid procedure. In this procedure uric acid is converted to hydrogen peroxide. Hydrogen peroxide reacts with reagent to produce a chromophore which is read bichromatically at 660/800 nm. The amount of dye formed is proportional to the uric acid concentration in the sample.
Serum samples for measurement of SUA levels were collected at the Screening Visit, the Week −4 Visit (prior to the first dose of MTX), and the Week −2 Visit during the MTX Run-in Period; within 48 hours prior to each pegloticase infusion and after the end of each pegloticase infusion prior to discharge from the site during the Pegloticase+IMM Period; at the non-infusion Week 52/End of Study/Early Termination Visits and at the Post Treatment 3 and 6 Month Follow-up Visits. Additional serum samples for SUA levels were collected at optional non-infusion (Frequent Sampling) Visits at Weeks 1 and 7. […] Subjects with SUA level >6 mg/dL at 2 consecutive visits beginning at Week 2 visit discontinued treatment, completed the End of Pegloticase Infusion Visit procedures within 2 weeks and continued the subject visits according to the protocol (without treatment).
Efficacy analyses were performed using the modified intention-to-treat (mITT) population, defined as all enrolled subjects who received ≥1 dose of pegloticase. The proportion of Month 6 responders was summarized, along with a 95% confidence interval for the proportion. The proportion of Month 3 and overall (Months 3 and 6 combined) responders was analyzed similarly.
A subject was declared a non-responder if the subject had SUA level >6 mg/dL at 2 consecutive study visits beginning with the Week 2 Visit. In addition, a subject who withdraws from study treatment for any reason after the first dose of pegloticase in the KXX+MTX Period and prior to Month 6 (for the primary endpoint) or Month 3 (for the secondary endpoint) was considered a non-responder if SUA values were not collected at the planned time points.
Patients were administered oral MTX (15 mg/week) and folate (1 mg/day) 4 weeks prior to the first pegloticase infusion (Day 1) and throughout the pegloticase treatment period. Blood was drawn prior to each infusion to measure sUA level, monitor clinical parameters, and examine for ADA development. All patients followed typical IR prophylaxis protocols (fexofenadine one day before and the morning of each infusion and acetaminophen and IV corticosteroid the morning of each infusion).

For pegloticase, the “Serum Uric Acid, Observed, Mean (SD)” value (Week 28-Pre-Infusion, n=8) was 0.30 (0.000) mg/dL, the “Serum Uric Acid, Observed, Median” value (Week 28-Pre-Infusion, n=8) was 0.30 mg/dL and the “sUA <6 mg/dL, n (%)” value (Week 28-Pre-Infusion, n=8) was 8 (100%). For the same substance, the “Serum Uric Acid, Change from Baseline, Mean (SD)” value (“Serum Uric Acid, Change … (SD)” for short) (Week 30-Pre-Infusion, n=8) was −9.11 (3.293) mg/dL, the “Serum Uric Acid, Change from Baseline, Median” value (Week 30-Pre-Infusion, n=8) was -8.95 mg/dL and the “Serum Uric Acid, Observed, Mean (SD)” value (Week 30-Pre-Infusion, n=8) was 0.30 (0.000) mg/dL. The “Serum Uric Acid, Observed, Median” value (Week 30-Pre-Infusion, n=8) was 0.30 mg/dL, the “sUA <6 mg/dL, n (%)” value (Week 30-Pre-Infusion, n=8) was 8 (100%) and the “Serum Uric Acid, Change … (SD)” value (Week 32-Post-Infusion, n=8) was −9.11 (3.293) mg/dL. For the same substance, the “Serum Uric Acid, Change from Baseline, Median” value (Week 32-Post-Infusion, n=8) was -8.95 mg/dL, the “Serum Uric Acid, Observed, Mean (SD)” value (Week 32-Post-Infusion, n=8) was 0.30 (0.000) mg/dL and the “Serum Uric Acid, Observed, Median” value (Week 32-Post-Infusion, n=8) was 0.30 mg/dL. For the same substance, the “sUA <6 mg/dL, n (%)” value (Week 32-Post-Infusion, n=8) was 8 (100%), the “Serum Uric Acid, Change … (SD)” value (Week 32-Pre-Infusion, n=10) was −8.99 (2.961) mg/dL and the “Serum Uric Acid, Change from Baseline, Median” value (Week 32-Pre-Infusion, n=10) was -8.95 mg/dL. For the same substance, the “Serum Uric Acid, Observed, Mean (SD)” value (Week 32-Pre-Infusion, n=10) was 0.30 (0.000) mg/dL, the “Serum Uric Acid, Observed, Median” value (Week 32-Pre-Infusion, n=10) was 0.30 mg/dL and the “sUA <6 mg/dL, n (%)” value (Week 32-Pre-Infusion, n=10) was 10 (100%). For the same substance, the “Serum Uric Acid, Change … (SD)” value (Week 34-Post-Infusion, n=8) was −9.11 (3.293) mg/dL, the “Serum Uric Acid, Change from Baseline, Median” value (Week 34-Post-Infusion, n=8) was -8.95 mg/dL and the “Serum Uric Acid, Observed, Mean (SD)” value (Week 34-Post-Infusion, n=8) was 0.30 (0.000) mg/dL. The “Serum Uric Acid, Observed, Median” value (Week 34-Post-Infusion, n=8) was 0.30 mg/dL, the “sUA <6 mg/dL, n (%)” value (Week 34-Post-Infusion, n=8) was 8 (100%) and the “Serum Uric Acid, Change … (SD)” value (Week 34-Pre-Infusion, n=10) was −8.47 (3.248) mg/dL. For the same substance, the “Serum Uric Acid, Change from Baseline, Median” value (Week 34-Pre-Infusion, n=10) was -7.95 mg/dL, the “Serum Uric Acid, Observed, Mean (SD)” value (Week 34-Pre-Infusion, n=10) was 0.82 (1.046) mg/dL and the “Serum Uric Acid, Observed, Median” value (Week 34-Pre-Infusion, n=10) was 0.30 mg/dL. For the same substance, the “sUA <6 mg/dL, n (%)” value (Week 34-Pre-Infusion, n=10) was 10 (100%), the “Serum Uric Acid, Change … (SD)” value (Week 36-Post-Infusion, n=6) was −9.38 (3.799) mg/dL and the “Serum Uric Acid, Change from Baseline, Median” value (Week 36-Post-Infusion, n=6) was -9.20 mg/dL. The “Serum Uric Acid, Observed, Mean (SD)” value (Week 36-Post-Infusion, n=6) was 0.30 (0.000) mg/dL, the “Serum Uric Acid, Observed, Median” value (Week 36-Post-Infusion, n=6) was 0.30 mg/dL and the “sUA <6 mg/dL, n (%)” value (Week 36-Post-Infusion, n=6) was 6 (100%). For the same substance, the “Serum Uric Acid, Change … (SD)” value (Week 36-Pre-Infusion, n=9) was −7.90 (4.094) mg/dL, the “Serum Uric Acid, Change from Baseline, Median” value (Week 36-Pre-Infusion, n=9) was -8.60 mg/dL and the “Serum Uric Acid, Observed, Mean (SD)” value (Week 36-Pre-Infusion, n=9) was 1.58 (2.425) mg/dL. The “Serum Uric Acid, Observed, Median” value (Week 36-Pre-Infusion, n=9) was 0.30 mg/dL, the “sUA <6 mg/dL, n (%)” value (Week 36-Pre-Infusion, n=9) was 8 ( 88.9%) and the “Serum Uric Acid, Change … (SD)” value (Week 38-Pre-Infusion, n=5) was −8.41 (5.229) mg/dL. For the same substance, the “Serum Uric Acid, Change from Baseline, Median” value (Week 38-Pre-Infusion, n=5) was -8.60 mg/dL, the “Serum Uric Acid, Observed, Mean (SD)” value (Week 38-Pre-Infusion, n=5) was 0.93 (1.583) mg/dL and the “Serum Uric Acid, Observed, Median” value (Week 38-Pre-Infusion, n=5) was 0.30 mg/dL. The “sUA <6 mg/dL, n (%)” value (Week 38-Pre-Infusion, n=5) was 5 (100%), the “Serum Uric Acid, Change … (SD)” value (Week 40-Pre-Infusion, n=3) was −11.30 (3.686) mg/dL and the “Serum Uric Acid, Change from Baseline, Median” value (Week 40-Pre-Infusion, n=3) was -9.80 mg/dL. For the same substance, the “Serum Uric Acid, Observed, Mean (SD)” value (Week 40-Pre-Infusion, n=3) was 0.30 (0.000) mg/dL, the “Serum Uric Acid, Observed, Median” value (Week 40-Pre-Infusion, n=3) was 0.30 mg/dL and the “sUA <6 mg/dL, n (%)” value (Week 40-Pre-Infusion, n=3) was 3 (100%). The “Serum Uric Acid, Change … (SD)” value (Week 42-Pre-Infusion, n=3) was −11.30 (3.686) mg/dL, the “Serum Uric Acid, Change from Baseline, Median” value (Week 42-Pre-Infusion, n=3) was -9.80 mg/dL and the “Serum Uric Acid, Observed, Mean (SD)” value (Week 42-Pre-Infusion, n=3) was 0.30 (0.000) mg/dL. The “Serum Uric Acid, Observed, Median” value (Week 42-Pre-Infusion, n=3) was 0.30 mg/dL, the “sUA <6 mg/dL, n (%)” value (Week 42-Pre-Infusion, n=3) was 3 (100%) and the “Serum Uric Acid, Change … (SD)” value (Week 44-Pre-Infusion, n=3) was −10.55 (4.625) mg/dL. For the same substance, the “Serum Uric Acid, Change from Baseline, Median” value (Week 44-Pre-Infusion, n=3) was -9.80 mg/dL, the “Serum Uric Acid, Observed, Mean (SD)” value (Week 44-Pre-Infusion, n=3) was 1.05 (1.305) mg/dL and the “Serum Uric Acid, Observed, Median” value (Week 44-Pre-Infusion, n=3) was 0.30 mg/dL. For the same substance, the “sUA <6 mg/dL, n (%)” value (Week 44-Pre-Infusion, n=3) was 3 (100%), the “Serum Uric Acid, Change … (SD)” value (Week 46-Pre-Infusion, n=2) was −12.65 (4.031) mg/dL and the “Serum Uric Acid, Change from Baseline, Median” value (Week 46-Pre-Infusion, n=2) was -12.65 mg/dL. For the same substance, the “Serum Uric Acid, Observed, Mean (SD)” value (Week 46-Pre-Infusion, n=2) was 0.30 (0.000) mg/dL, the “Serum Uric Acid, Observed, Median” value (Week 46-Pre-Infusion, n=2) was 0.30 mg/dL and the “sUA <6 mg/dL, n (%)” value (Week 46-Pre-Infusion, n=2) was 2 (100%).
